From patent US20200255828A1, “METHODS AND COMPOSITIONS FOR ALTERING FUNCTION AND STRUCTURE OF CHROMATIN LOOPS AND/OR DOMAINS” (THE BROAD INSTITUTE, INC., priority 2017, published 2020)
Entries after “also recorded” stand apart in the source; their conditions may differ.

B1: WT CTCF: wild-type CTCF introduced by transfection into CTCF-AID cells (protein)
chain: MEGDAVEAIVEESETFIKGKERKTYQRRREGGQEEDACHLPQNQTDGGEVVQDVNSSVQMVMMEQLDPTLLQMKTEVMEGTVAPEAEAAVDDTQIITLQVVNMEEQPINIGELQLVQVPVPVTVPVATTSVEELQGAYENEVSKEGLAESEPMICHTLPLPEGFQVVKVGANGEVETLEQGELPPQEDPSWQKDPDYQPPAKKTKKTKKSKLRYTEEGKDVDVSVYDFEEEQQEGLLSEVNAEKVVGNMKPPKPTKIKKKGVKKTFQCELCSYTCPRRSNLDRHMKSHTDERPHKCHLCGRAFRTVTLLRNHLNTHTGTRPHKCPDCDMAFVTSGELVRHRRYKHTHEKPFKCSMCDYASVEVSKLKRHIRSHTGERPFQCSLCSYASRDTYKLKRHMRTHSGEKPYECYICHARFTQSGTMKMHILQKHTENVAKFHCPHCDTVIARKSDLGVHLRKQHSYIEQGKKCRYCDAVFHERYALIQHQKSHKNEKRFKCDQCDYACRQERHMIMHKRTHTGEKPYACSHCDKTFRQKQLLDMHFKRYHDPNFVPAAFVCSKCGKTFTRRNTMARHADNCAGPDGVEGENGGETKKSKRGRKRKMRSKKEDSSDSENAEPDLDDNEDEEEPAVEIEPEPEPQPVTPAPPPAKKRRGRPPGRTNQPKQNQPTAIIQVEDQNTGAIENIIVEVKKEPDAEPAEGEEEEAQPAATDAPNGDLTPEMILSMMDR

Columns and labels:
[1] = system: HCT-116 cells; experiment: Loop reformation (Hi-C APA) after Rad21 degradation and recovery without transcription, replication or ATP; format: cell-based, human; conditions: Rad21 temporarily degraded and allowed to recover
Text: Using the degron system, Applicants can directly measure the influence of cellular processes on loop formation (Vian et al, 2018). […] Applicants also tested interchromasomal cohesin-independent links requirement for ATP after cohesin degradation and observed that depletion of ATP strengthens the interactions between superenhancers (FIG. 23).

[2] = system: CTCF-AID cells; experiment: Rescue experiments in the CTCF-AID cell line (Hi-C); format: cell-based, human; conditions: endogenous CTCF degraded by auxin
Text: The protein CTCF is thought to act as an oriented brake to halt cohesin-mediated loop extrusion in one direction along the genome but not the other, but how this braking activity is mediated mechanistically is unknown. An important question regarding CTCF barrier activity is whether there is a protein domain mediating the ability to halt extrusion or whether CTCF halts cohesin via steric occlusion. As a proof of principle, Applicants introduced either (i) WT CTCF, (ii) CTCF lacking its N terminal domain, or (iii) CTCF lacking its C terminal domain by transfection into CTCF-AID cells. […] Applicants can systematically identify the key residues in the N terminus of CTCF that are necessary for barrier activity by transfecting plasmids expressing mutant CTCF proteins with tiled mutations on the N terminus and assaying via Hi-C after degradation of endogenous CTCF. Similarly, Applicants can develop HCT-116 degron lines for SA1, SA2, and SA1+SA2 double degron (the cohesin ring co-factors that are thought to mediate the interaction between cohesin and CTCF). By depleting endogenous SA protein, introducing SA proteins with tiled mutations across various domains, and assaying looping via Hi-C, Applicants can similarly identify the residues on the cohesin complex required for interaction with CTCF. […]

| Molecule | effect on loop formation during Rad21 recovery [1] | rescue of the looping phenotype [2] |
| --- | --- | --- |
| CN1CC[C@H](c2c(O)cc(O)c3c(=O)cc(-c4ccccc4Cl)oc23)[C@H](O)C1 [flavopiridol] | does not block loop formation; also recorded: loop reformation occurs without issue |  |
| CC[C@H]1/C=C/C=C/C[C@@H](C)[C@H](O)[C@@](C)(O)C(=O)[C@@H](C)[C@H](O)[C@@H](C)C(=O)[C@@H](C)[C@H](O)[C@@H](C)/C=C/C(=O)O[C@@H]2[C@H](C)[C@H](CC1)O[C@]1(CC[C@H](C)[C@H](C[C@@H](C)O)O1)[C@H]2C [oligomycin] | does block loop formation; also recorded: loop formation requires ATP |  |
| Cc1cn([C@H]2C[C@H](O)[C@@H](CO)O2)c(=O)[nH]c1=O [thymidine] | does not block loop formation; also recorded: loop reformation occurs without issue |  |
| B1 |  | rescue the looping phenotype |
